Reference: US20210170002A1, “SLC45A2 PEPTIDES FOR IMMUNOTHERAPY” (Board of Regents, The University of Texas System, priority 2015, published 2021)

Experiments:
[1] = tested on: melanoma cells; experiment: 51Cr release assay of SLC45A2-specific CD8 T cells against inhibitor-treated melanoma cells; type: cell-based, human; settings: melanoma cells treated for 48 hours
Experimental: SLC45A2-specific CD8 T cells were assayed for specific lysis of SLC45A2-expressing or not expressing targets using standard 51Chromium (51Cr) release assay. Targets were labeled with 100 uCi of 51Cr for 2 hrs and after three times washing, the labeled targets plated triplicated well at a 2000 targets per well. Effector cells were incubated with targets as various effector:target (E:T) ratio. After 4 hours, 30 ul of supernatant was collected from each well and the 51Cr was measured by a gamma counter. The percentage of specific lysis was calculated.
(§1) Mel526 and A375 (BRAF V600E+) and MeWo (BRAF wild type) were treated with BRAF V600E inhibitor, dabrafenib (50 nM), or MEK inhibitor, Trametinib (50 nM) (GlaxoSmithKline) or both for 48 hours. Untreated melanomas were used as control.
Like other melanocyte differentiation proteins such as MART-1, gp100 and tyrosinase, the SLC45A2 gene is regulated by the MITF transcription factor (J Biol Chem, 2002, 277:402-406, Gen Soci Ame, 2008 178:761-769). MITF protein levels are suppressed by oncogenic BRAF through ERK-mediated phosphorylation and degradation (J Cell Biol, 2005, 170:703-708). […] Melanoma cells were treated with a specific inhibitor of BRAF V600E, dabrafenib (50 nM), or a MEK inhibitor, Trametinib (50 nM), or both for 48 hours and mRNA expression of SLC45A2 and MART-1 was analyzed by RT-PCR. […]

[2] = tested on: mRNA expression of SLC45A2 and MART-1; experiment: RT-PCR of SLC45A2 and MART-1 mRNA after MAPK pathway inhibitor treatment; type: cell-based, human; settings: 50 nM, 48 hours
Experimental: Real time PCR was done with primers of SLC45A2, MART-1, gp100, and tyrosinase using power syber green PCR master mix (Applied biosystems life technologies). Values were normalized by the amount of the gene encoding GAPDH.
as §1
Like other melanocyte differentiation proteins such as MART-1, gp100 and tyrosinase, the SLC45A2 gene is regulated by the MITF transcription factor (J Biol Chem, 2002, 277:402-406, Gen Soci Ame, 2008 178:761-769). MITF protein levels are suppressed by oncogenic BRAF through ERK-mediated phosphorylation and degradation (J Cell Biol, 2005, 170:703-708). Thus, it was next investigated whether BRAF or MEK inhibitors can modulate SLC45A2 expression. Melanoma cells were treated with a specific inhibitor of BRAF V600E, dabrafenib (50 nM), or a MEK inhibitor, Trametinib (50 nM), or both for 48 hours and mRNA expression of SLC45A2 and MART-1 was analyzed by RT-PCR. […] To assess the killing effect of SCL45A2-specific CD8 T cells against melanoma cells after treatment with BRAF and MEK inhibitors, a ^51Cr release assay was performed in melanoma cells treated with a BRAF inhibitor, a MEK inhibitor or both for 48 hours.

Row | SMILES | cytotoxicity of SLC45A2-specific CD8 T cells against treated vs untreated melanoma cells [1] | mRNA expression of SLC45A2 and MART-1 ([2]; MeWo cells (wild type BRAF)) | mRNA expression of SLC45A2 and MART-1 ([2]; Mel526 cells (BRAF V600E))
1 | CC(=O)Nc1cccc(-n2c(=O)n(C3CC3)c(=O)c3c(Nc4ccc(I)cc4F)n(C)c(=O)c(C)c32)c1 [Trametinib] | increased cytotoxicity | – | –
2 | CC(C)(C)c1nc(-c2cccc(NS(=O)(=O)c3c(F)cccc3F)c2F)c(-c2ccnc(N)n2)s1 [dabrafenib] | increased cytotoxicity | did not show an increased expression | significant increase
